# Laboratory results published in PubChem BioAssay (NCI).
# Several values for one entry are separate records, joined by “and”; a condition that tells them apart may be missing. Identical values can stand only once.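 How tested: cells in 96-well plates exposed to compound for 48 hours at five concentrations. GI50 marks 50% less growth. At the TGI there is no net growth.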
# Experiments:
# Test in all cases: NCI anticancer screen, dose series, 48 h
# [1] = test system: HOP-62 NSCLC
# [2] = test system: HCT-15 colon
# [3] = test system: K-562 leukemia
# [4] = test system: A549 NSCLC
# [5] = test system: SF-295 CNS
# [6] = test system: RXF 393 renal
# [7] = test system: SR leukemia
# [8] = test system: SN12C renal
# [9] = test system: ACHN renal
# [10] = test system: SF-539 CNS
Compound,GI50 [1],TGI [1],GI50 [2],TGI [2],GI50 [3],TGI [3],GI50 [4],TGI [4],GI50 [5],TGI [5],GI50 [6],TGI [6],GI50 [7],TGI [7],GI50 [8],TGI [8],GI50 [9],TGI [9],GI50 [10],TGI [10]
O=C(Nc1nc(-c2ccccc2Cl)cs1)c1cc(-c2ccc(Cl)cc2)nc2ccc(Cl)cc12,3.73 µM,45 µM,1.93 µM,40 µM,3.66 µM,> 100 µM,39.2 µM,> 100 µM,3.16 µM,23.3 µM,10.3 µM,> 100 µM,3.15 µM,> 100 µM,0.895 µM,76.9 µM,3.84 µM,78.2 µM,2.12 µM,8.31 µM
O=C(O)C1C2CCC(O2)C1C(=O)NCc1cccnc1 (stereo not drawn),–,> 100 µM,–,> 100 µM,–,–,–,> 100 µM,–,> 100 µM,–,> 100 µM,–,> 100 µM,–,> 100 µM,–,> 100 µM,–,> 100 µM
COC(=O)c1cc2c(nc1C)-c1ccccc1OS2(=O)=O,–,67.8 µM,–,> 100 µM,–,> 100 µM,–,> 100 µM,–,> 100 µM,–,> 100 µM,–,> 100 µM,–,> 100 µM,–,> 100 µM,–,> 100 µM
CCCCCCn1c2c(c3c(O)cccc31)C(=O)c1ccccc1-2,18.4 µM,33.8 µM,18.6 µM,37 µM,23.7 µM,58.4 µM,16.4 µM,34.5 µM,21 µM,44.8 µM,12 µM,28 µM,26 µM,> 100 µM,17.6 µM,32 µM,16.6 µM,30.3 µM,18 µM,35.7 µM
CSc1nc(SC)c2c(C)cn(C3OC(C)C(O)C(O)C3O)c2n1 (stereo not drawn),–,> 100 µM,–,> 100 µM,–,–,–,> 100 µM,–,> 100 µM,–,> 100 µM,–,> 100 µM,–,> 100 µM,–,> 100 µM,–,> 100 µM
O=C(O)c1c[nH]c2c(ccc3[nH]cc(C(=O)O)c(=O)c32)c1=O,–,> 100 µM,–,> 100 µM,–,> 100 µM,–,> 100 µM,–,> 100 µM,–,> 100 µM,–,> 100 µM,–,> 100 µM,–,> 100 µM,–,> 100 µM
ClCc1ccc(-c2ccc(Cn3cnc4c(Cl)ncnc43)cc2)cc1,1.84 µM,3.63 µM,1.9 µM,4.47 µM,2.9 µM,> 100 µM,4.31 µM,17.4 µM,1.92 µM,4.89 µM,1.88 µM,4.51 µM,2.51 µM,> 100 µM,1.64 µM,3.69 µM,1.5 µM,2.89 µM,1.52 µM,3.14 µM
O=C(NC(Cc1ccccc1)C(=O)CCl)OCc1ccccc1 (stereo not drawn),–,30.6 µM and 29.4 µM,2.32 µM,8.56 µM and 17.8 µM,2.65 µM,> 100 µM and 40.1 µM,13.9 µM,33.9 µM and 36.2 µM,–,33 µM and 29.2 µM,3.62 µM,14.2 µM,2.23 µM,> 100 µM,–,17.7 µM and 20.3 µM,3.72 µM,13.3 µM and 21.8 µM,3 µM,10.3 µM and 16.8 µM
Cc1cc(Cl)ccc1Nc1nc2c(s1)C(=O)c1ccccc1C2=O,–,9.72 µM,–,3.68 µM,–,> 23.3 µM,–,21.4 µM,–,24.2 µM,–,16.8 µM,–,10.8 µM,–,3.33 µM,–,10.3 µM,–,16 µM
CCOC(=O)Nc1cc(-c2ccc(C)c(NS(C)(=O)=O)c2)nn2c(C)nnc12,1.89 µM,20.5 µM,1.26 µM,10.3 µM,1.73 µM,> 100 µM,3.07 µM,> 100 µM,1.85 µM,56.3 µM,2.59 µM,12.9 µM,0.643 µM,> 100 µM,2.06 µM,58.5 µM,2.64 µM,60.7 µM,1.86 µM,> 100 µM
COC1/C=C/OC2(C)Oc3c(C)c(O)c4c(O)c(c(C=NOC(c5ccccc5)c5ccccc5)c(O)c4c3C2=O)NC(=O)/C(C)=C/C=C/C(C)C(O)C(C)C(O)C(C)C(OC(C)=O)C1C (stereo not drawn),0.916 µM,1.85 µM,1.17 µM,2.96 µM,2.17 µM,50 µM,1.58 µM,6.05 µM,1.21 µM,3.57 µM,0.943 µM,1.74 µM,1.94 µM,5.93 µM,1.31 µM,3.53 µM,1.17 µM,2.73 µM,0.979 µM,1.95 µM
CS(=O)(=O)c1ccc(-c2cnc(NCc3ccco3)n3cnnc23)cc1,> 100 µM,> 100 µM,> 100 µM,> 100 µM,72.6 µM,> 100 µM,> 100 µM,> 100 µM,> 100 µM,> 100 µM,> 100 µM,> 100 µM,> 100 µM,> 100 µM,> 100 µM,> 100 µM,> 100 µM,> 100 µM,> 100 µM,> 100 µM
COc1ccc(/C=C/C(=O)c2ccccc2)cc1OC,19.3 µM,31.1 µM and 43 µM,5.23 µM,34.9 µM and 24.8 µM,3.95 µM,> 100 µM,30.5 µM,47.7 µM and > 100 µM,14.5 µM,32.9 µM and 34 µM,–,48.2 µM and 27.6 µM,–,> 100 µM and 58.3 µM,13.1 µM,30.6 µM and 29 µM,–,29.4 µM and 28.5 µM,16.4 µM,25.7 µM and 36.1 µM
COC(=O)Cc1nn2c(nc1=O)sc1ccc3ccccc3c12,–,> 100 µM,–,> 100 µM,–,> 100 µM,–,> 100 µM,–,–,–,96 µM,–,> 100 µM,–,> 100 µM,–,> 100 µM,–,> 100 µM
COc1cccc(/C=C2\CCc3ccccc3C2=O)c1,14.6 µM,29.2 µM,10.5 µM,49.4 µM,3.29 µM,57.1 µM,20.1 µM,60.1 µM,9.62 µM,27.3 µM,16.1 µM,32.4 µM,3.1 µM,15.1 µM,15.8 µM,40.2 µM,10.2 µM,25.3 µM,16.4 µM,36.9 µM
NC(CSC1(c2ccc(Cl)cc2)c2ccccc2-c2ccccc21)C(=O)O (stereo not drawn),–,49.6 µM,–,47.3 µM,–,> 100 µM,–,> 100 µM,–,37.7 µM,–,> 100 µM,–,46.9 µM,–,41.4 µM,–,50.2 µM,–,48.5 µM
COc1cc(-c2ccc(=O)oc2C#Cc2ccccc2)cc(OC)c1OC,19 µM,66.8 µM,13.8 µM,> 100 µM,86.1 µM,> 100 µM,3.22 µM,91.1 µM,11.2 µM,35.5 µM,0.945 µM,19.9 µM,2.4 µM,> 100 µM,15.9 µM,> 100 µM,14.8 µM,90.2 µM,12.7 µM,> 100 µM
COc1ccc2c(c1)CC1N(C)CCC13CCCCC23 (stereo not drawn),–,> 100 µM,–,> 100 µM,–,> 100 µM,–,> 100 µM,–,> 100 µM,–,> 100 µM,–,> 100 µM,–,> 100 µM,–,> 100 µM,–,–

Compound,GI50 [1],TGI [1],GI50 [2],TGI [2],GI50 [3],TGI [3],GI50 [4],TGI [4],GI50 [5],TGI [5],GI50 [6],TGI [6],GI50 [7],TGI [7],GI50 [8],TGI [8],GI50 [9],TGI [9],GI50 [10],TGI [10]
O=C1CCCCCCCCCCOC(=O)CCCCCCCCCCO1,–,> 100 µM,–,> 100 µM,–,> 100 µM,–,> 100 µM,–,> 100 µM,–,> 100 µM,–,> 100 µM,–,> 100 µM,–,> 100 µM,–,> 100 µM
CCOC(=O)CP(=S)(S)c1ccccc1 (stereo not drawn),–,> 100 µM,–,–,–,> 100 µM,–,> 100 µM,–,–,–,> 100 µM,–,> 100 µM,–,> 100 µM,–,> 100 µM,–,> 100 µM
CC/C(=C(/CC)c1ccc(O)cc1)c1ccc(O)cc1,4.89 µM,20.9 µM,4.79 µM,20 µM,–,–,4.59 µM,20.5 µM,2.73 µM,11.6 µM,6.72 µM,21.8 µM,3.98 µM,29.6 µM,5.9 µM,28.6 µM,6.07 µM,18.3 µM,5.84 µM,19.7 µM
COc1ccc(Nc2ncccc2C(=O)NCc2cn(Cc3cccc(Oc4ccccc4)c3)nn2)c(OC)c1,5.58 µM,> 100 µM,1.68 µM,> 100 µM,1.58 µM,> 100 µM,3.7 µM,> 100 µM,0.552 µM,22.2 µM,1.91 µM,> 74.2 µM,–,–,3.51 µM,> 100 µM,3.94 µM,> 100 µM,2.43 µM,19.2 µM
C1C[S][Ge]2([S]CCS1)[S]CCSCC[S]2,> 100 µM,> 100 µM,> 100 µM,> 100 µM,> 100 µM,> 100 µM,–,–,–,–,–,–,> 100 µM,> 100 µM,> 100 µM,> 100 µM,> 100 µM,> 100 µM,> 100 µM,> 100 µM
C[C@H]1CCC2C(CN3CCCCC3)C(=O)OC2[C@]2(C)C(=O)CC(N3CCCCC3)C12O (stereo partly drawn),–,–,–,–,–,39.2 µM,–,90.8 µM,–,22.3 µM,–,4.31 µM,–,15.8 µM,–,14.8 µM,–,9.73 µM,–,7.93 µM
c1cnc2nc3n(c2c1)CSC3,–,> 100 µM,–,> 100 µM,–,> 100 µM,–,> 100 µM,–,> 100 µM,–,> 100 µM,–,–,–,> 100 µM,–,> 100 µM,–,> 100 µM
O=C(O)CCCc1cc2c(s1)-c1cccc3cccc-2c13,–,> 100 µM,–,51.8 µM,–,> 100 µM,–,> 100 µM,–,> 100 µM,–,–,–,56.9 µM,–,80.4 µM,–,76 µM,–,> 100 µM
COC(=O)C1=Cc2cn(S(=O)(=O)c3ccc(C)cc3)c3cccc(c23)C(C=C(C)C)N1C(C)=O (stereo not drawn),–,> 100 µM,–,–,–,> 100 µM,–,> 100 µM,–,> 100 µM,–,> 100 µM,–,> 100 µM,–,> 100 µM,–,> 100 µM,–,> 100 µM
O=[N+]([O-])c1cccc([I+]c2ccccc2)c1,5.19 µM,18.8 µM,5.35 µM,30.1 µM,3.26 µM,32.1 µM,3.46 µM,24.1 µM,10.9 µM,25.6 µM,–,–,3.16 µM,25.9 µM,10.4 µM,22.8 µM,19.6 µM,> 100 µM,10.8 µM,24.3 µM
O=c1sc(-c2nc3ccccc3[nH]2)c(/N=C/c2ccccc2)n1-c1ccccc1,–,73.7 µM,–,> 100 µM,–,> 100 µM,–,> 100 µM,–,> 100 µM,–,> 100 µM,–,–,–,> 100 µM,–,> 100 µM,–,> 100 µM
CN1c2ccccc2S(=O)(=O)n2c(COc3ccccc3)nnc21,–,> 100 µM,–,> 100 µM,–,> 100 µM,–,> 100 µM,–,> 100 µM,–,> 100 µM,–,–,–,> 100 µM,–,> 100 µM,–,> 100 µM
c1ccc(N2N=NC3C4CC(C5c6ccccc6C45)C32)cc1 (stereo not drawn),–,> 100 µM,–,> 100 µM,–,> 100 µM,–,> 100 µM,–,> 100 µM,–,44.1 µM,–,> 100 µM,–,> 100 µM,–,–,–,> 100 µM
O=C(O)c1ccccc1C1c2ccc(Cl)cc2Oc2cc(Cl)ccc21,–,> 100 µM,–,> 100 µM,–,> 100 µM,–,> 100 µM,–,> 100 µM,–,> 100 µM,–,–,–,> 100 µM,–,> 100 µM,–,> 100 µM
COc1cc(=O)oc(/C=C/CO)c1C,–,> 100 µM,–,–,–,> 100 µM,–,> 100 µM,–,> 100 µM,–,> 100 µM,–,> 100 µM,–,> 100 µM,–,> 100 µM,–,> 100 µM
CCOC(=O)Cn1c(=O)[nH]c(=O)c2[nH]cnc21,–,> 100 µM,–,> 100 µM,–,> 100 µM,–,> 100 µM,–,–,–,> 100 µM,–,> 100 µM,–,> 100 µM,–,> 100 µM,–,> 100 µM
O=C(NCCCl)NCc1ccccc1,–,> 100 µM,–,> 100 µM,–,> 100 µM,–,> 100 µM,–,> 100 µM,–,> 100 µM,–,> 100 µM,–,> 100 µM,–,> 100 µM,–,–
C=CCn1c(=O)c(C(=O)NC(=O)OCC)cn(C2CCCCC2)c1=O,–,> 100 µM,–,> 100 µM,–,> 100 µM,–,> 100 µM,–,> 100 µM,–,–,–,> 100 µM,–,> 100 µM,–,> 100 µM,–,> 100 µM
